# Laboratory results: patent US20230357307A1, “CLEAVABLE CYCLIC LOOP NUCLEOTIDES FOR NANOPORE SEQUENCING” (ILLUMINA, INC., priority 2022, published 2023)
# Tested on: polymerase
# Test: polymerase incorporation of allyl dTTP (FIG. 7 gel)
# Assay type: biochemical
# Details: homopolymeric A template
# Excerpt: A polymerase incorporated “allyl dTTP” and “ext allyl dTTP” to a template and primer combination, as indicated by the arrow in FIG. 7, for up to 10 successive incorporations. The reaction conditions as well as the definitions of “allyl dTTP” and “ext allyl dTTP” are given in the right panel of FIG. 7. Moreover, “A” and “B” are referring to the optically pure diastereomers arising from the C5′ allyl carbon center.
# Lanes 1 (starting from the left), 3, 5, 7, 9 and 11 were loaded with reactions run for an hour; and Lanes 2, 4, 6, 8, 10 and 12 were loaded with reactions run for 22 hours. Lanes 1 and 2 show: controls with natural dTTP without any arresting constructs (Note, bands above +10 are seen due to the use of a homopolymeric A template, a common observation). Lanes 3 and 4 show: one isomer of Allyl dTTP (“Allyl A dTTP”) is used, the isomer arise from the C-stereogenic center (marked with “+” in the structure shown on the right panel of FIG. 7). Up to +7 incorporation observed after 1 h. […] Lanes 5 and 6 show: one isomer of ext allyl dTTP (“Ext Allyl A dTTP”) is used. Up to +7 incorporation observed after 22h. Slower incorporation possibly due to increased sterics. Lanes 7 and 8 show: the other isomer of Allyl dTTP (“Allyl B dTTP”) is used. Up to +10 incorporation observed after 22h. Lanes 9 and 10 show: the other isomer of ext allyl dTTP (“Ext Allyl B dTTP”) is used. […]
smiles,measurement,setting,value
Cc1cn([C@H]2C[C@H](O)[C@@H](COP(=O)(O)OP(=O)(O)OP(=O)(O)O)O2)c(=O)[nH]c1=O [dTTP],incorporation observed (primer +n),reactions run for 22 hours,above +10
same,incorporation observed (primer +n),reactions run for an hour,above +10
